Patent US20240358692A1, “TREATMENT OF SCLERODERMA” (Aisa Pharma, Inc., priority 2023, published 2024)

What was measured:
participants with SSc-RP [1] = test: SHAQ - Visual Analog Scale - Overall Disease Severity; assay type: in vivo, human; details: cilnidipine 20 mg (combination: + tadalafil 5 mg)
Source text: (§1) The standard, validated, patient reported outcome measures tool for SSc patients, the Scleroderma Health Assessment Questionnaire (SHAQ), will be used to assess the participant qualify of life. Details are attached in the Appendix. The participant quality of life will be scored, and a disability index calculated for each questionnaire completed by the patient at Screening and each in-clinic visit. The absolute change in participant quality of life from baseline to the end of each dosing period will be calculated similar to frequency data as before.
The standard, validated, patient reported outcome measures tool for SSc patients, the SHAQ, was collected at the time points specified in the study schedules (FIG. 2 and FIGS. 4A and 4B) to assess the participant's quality of life. The SHAQ included a Raynaud's VAS that will also be reported separately.

participants with SSc-RP [2] = test: SHAQ - Standard Disability Index; assay type: in vivo, human; design: key to SHAQ Standard Disability Index, In-Clinic Visit (Day 12), Mean / SHAQ Standard Disability Index, In-Clinic Visit (Day 12), Median / SHAQ Standard Disability Index, Day 12, Mean / SHAQ Standard Disability Index, Day 12, Median: 0 = without any difficulty to 3 = unable to do
Source text: as §1
The SHAQ is used to calculate a Disability Index to assess the participant qualify of life. The eight categories assessed by the Disability Index are 1) dressing and grooming, 2) arising, 3) eating, 4) walking, 5) hygiene, 6) reach, 7) grip, and 8) common daily activities. For each of these categories, patients report the amount of difficulty they have in performing two or three specific activities.
There are four possible responses for the Disability Index questions: • Without any difficulty=0 • With some difficulty=1 • With much difficulty=2 • Unable to do=3 • The highest score reported by the patient for any component question of the eight categories determines the score for that category. • If a component question is left blank or the response is too ambiguous to assign a score, then the score for that category is determined by the remaining completed question(s). • If all component questions are blank or if more than one answer is given, then follow up with the respondent is required. • If the respondent's mark is between the response columns, then move it to the closest one. If it's directly between the two, move it to the higher one.
This question results in a new set of category scores that are computed by adjusting the score for each category, if necessary, based on the patient's use of an aid or device or assistance for that category. If either devices and/or help from another person are checked for a category, the score is set to “2”, unless the score is already “3” (i.e., scores of “0” or “1” are increased to “2”). For example, if the highest score for the dressing category is “1”, and the patient says they use a device for dressing, the computed category score would be “2”. The sum of the computed categories scores is then calculated and divided by the number of categories answered. This gives a score in the 0 to 3 range.

[3] = Any Cilnidipine (N = 17), Day 12, PP Population, Part A
[4] = Cilnidipine 10 mg, SSc patients, PP, Part A
[5] = Cilnidipine 20 mg (N = 3), Day 12, Patients with Diagnosis of SSc, Modified ITT Population - Part A
[6] = Cilnidipine 20 mg, SSc patients, PP, Part A
[7] = Pooled Cilnidipine 20 mg and Cilnidipine 20 mg + Tadalafil 5 mg (N = 8), Day 12, PP Population, Part A
[8] = Pooled Cilnidipine (N = 8), Day 12, PP Population, Part A

With COCCOC(=O)C1=C(C)NC(C)=C(C(=O)OC/C=C/c2ccccc2)C1c1cccc([N+](=O)[O-])c1 (centres unmarked) [Cilnidipine] the “VAS Overall Severity Percent Change from Baseline Q1” value (participants with SSc-RP [1]) was −76.19%, the “VAS Overall Severity Percent Change from Baseline Q3” value (participants with SSc-RP [1]) was −51.72% and the “SHAQ Standard Disability Index, Change from Baseline, Mean (SD)” value (participants with SSc-RP [2]; [3]) was −0.041 (0.1990). For the same compound, the “SHAQ Standard Disability Index, Change from Baseline, Median” value (participants with SSc-RP [2]; [3]) was 0.000, the “SHAQ Standard Disability Index, Percent Change from Baseline, Median” value (participants with SSc-RP [2]; [3]) was 0.00% and the “SHAQ Standard Disability Index, In-Clinic Visit (Day 12), Median” value (participants with SSc-RP [2]; Cilnidipine 10 mg (N = 3), Patients with Diagnosis of SSc, Modified ITT Population - Part A) was 1.125. For the same compound, the “SHAQ Standard Disability Index, Change from Baseline, Max” value (participants with SSc-RP [2]; [4]) was 0.00, the “SHAQ Standard Disability Index, Change from Baseline, Min” value (participants with SSc-RP [2]; [4]) was 0.00, and the “SHAQ Standard Disability Index, Change from Baseline, Q1” value (participants with SSc-RP [2]; [4]) was 0.000,. For the same compound, the “SHAQ Standard Disability Index, Change from Baseline, Q3” value (participants with SSc-RP [2]; [4]) was 0.000, the “SHAQ Standard Disability Index, Day 12, Max” value (participants with SSc-RP [2]; [4]) was 1.50 and the “SHAQ Standard Disability Index, Day 12, Mean” value (participants with SSc-RP [2]; [4]) was 0.656. For the same compound, the “SHAQ Standard Disability Index, Day 12, Median” value (participants with SSc-RP [2]; [4]) was 0.563, the “SHAQ Standard Disability Index, Day 12, Min” value (participants with SSc-RP [2]; [4]) was 0.00, and the “SHAQ Standard Disability Index, Day 12, Q1” value (participants with SSc-RP [2]; [4]) was 0.000,. The “SHAQ Standard Disability Index, Day 12, Q3” value (participants with SSc-RP [2]; [4]) was 1.313, the “SHAQ Standard Disability Index, Percent Change from Baseline, Max” value (participants with SSc-RP [2]; [4]) was 0.0 and the “SHAQ Standard Disability Index, Percent Change from Baseline, Min” value (participants with SSc-RP [2]; [4]) was 0.0,. The “SHAQ Standard Disability Index, Percent Change from Baseline, Q1” value (participants with SSc-RP [2]; [4]) was 0.00,, the “SHAQ Standard Disability Index, Percent Change from Baseline, Q3” value (participants with SSc-RP [2]; [4]) was 0.00 and the “SHAQ Standard Disability Index, Change from Baseline, Mean” value (participants with SSc-RP [2]; [5]) was −0.125. The “SHAQ Standard Disability Index, Change from Baseline, Median” value (participants with SSc-RP [2]; [5]) was −0.125, the “SHAQ Standard Disability Index, Percent Change from Baseline, Mean” value (participants with SSc-RP [2]; [5]) was −50.00% and the “SHAQ Standard Disability Index, Percent Change from Baseline, Median” value (participants with SSc-RP [2]; [5]) was −50.00%. For the same compound, the “SHAQ Standard Disability Index, In-Clinic Visit (Day 12), Mean” value (participants with SSc-RP [2]; Cilnidipine 20 mg (N = 3), Patients with Diagnosis of SSc, Modified ITT Population - Part A) was 0.125, the “% change in Standard Disability Index” value (participants with SSc-RP [2]; Cilnidipine 20 mg (n = 3), SHAQ, mITT Part A) was −50% and the “SHAQ Standard Disability Index, Change from Baseline, Max” value (participants with SSc-RP [2]; [6]) was 0.13. For the same compound, the “SHAQ Standard Disability Index, Change from Baseline, Mean” value (participants with SSc-RP [2]; [6]) was −0.063, the “SHAQ Standard Disability Index, Change from Baseline, Median” value (participants with SSc-RP [2]; [6]) was −0.063 and the “SHAQ Standard Disability Index, Change from Baseline, Min” value (participants with SSc-RP [2]; [6]) was −0.25,. The “SHAQ Standard Disability Index, Change from Baseline, Q1” value (participants with SSc-RP [2]; [6]) was −0.188,, the “SHAQ Standard Disability Index, Change from Baseline, Q3” value (participants with SSc-RP [2]; [6]) was 0.063 and the “SHAQ Standard Disability Index, Day 12, Max” value (participants with SSc-RP [2]; [6]) was 0.75. The “SHAQ Standard Disability Index, Day 12, Mean” value (participants with SSc-RP [2]; [6]) was 0.281, the “SHAQ Standard Disability Index, Day 12, Median” value (participants with SSc-RP [2]; [6]) was 0.188 and the “SHAQ Standard Disability Index, Day 12, Min” value (participants with SSc-RP [2]; [6]) was 0.00,. The “SHAQ Standard Disability Index, Day 12, Q1” value (participants with SSc-RP [2]; [6]) was 0.063,, the “SHAQ Standard Disability Index, Day 12, Q3” value (participants with SSc-RP [2]; [6]) was 0.500 and the “SHAQ Standard Disability Index, Percent Change from Baseline, Max” value (participants with SSc-RP [2]; [6]) was 20.0. For the same compound, the “SHAQ Standard Disability Index, Percent Change from Baseline, Mean” value (participants with SSc-RP [2]; [6]) was −26.67, the “SHAQ Standard Disability Index, Percent Change from Baseline, Min” value (participants with SSc-RP [2]; [6]) was −66.7, and the “SHAQ Standard Disability Index, Percent Change from Baseline, Q1” value (participants with SSc-RP [2]; [6]) was −66.67,. For the same compound, the “SHAQ Standard Disability Index, Percent Change from Baseline, Q3” value (participants with SSc-RP [2]; [6]) was 20.00, the “SHAQ Standard Disability Index, Change from Baseline, Mean” value (participants with SSc-RP [2]; [7]) was −0.065 and the “SHAQ Standard Disability Index, Change from Baseline, Median” value (participants with SSc-RP [2]; [7]) was 0.000. The “SHAQ Standard Disability Index, Change from Baseline, Mean (SD)” value (participants with SSc-RP [2]; [8]) was −0.031 (0.1108) and the “SHAQ Standard Disability Index, In-Clinic Visit (Day 12), Mean (SD)” value (participants with SSc-RP [2]; [8]) was 0.469 (0.5853).
